This test concerns the target T1, THIK-2*-Y292A (Homo sapiens, UniProt Q9HB15, R11A/R12A/R14A/R15A/R16A/Y292A).
T1 construct: expressed in transfected cells; host or cells: Xenopus oocytes (mRNA injection)
T1 sequence (Q9HB15 1-430 R11A/R12A/R14A/R15A/R16A/Y292A): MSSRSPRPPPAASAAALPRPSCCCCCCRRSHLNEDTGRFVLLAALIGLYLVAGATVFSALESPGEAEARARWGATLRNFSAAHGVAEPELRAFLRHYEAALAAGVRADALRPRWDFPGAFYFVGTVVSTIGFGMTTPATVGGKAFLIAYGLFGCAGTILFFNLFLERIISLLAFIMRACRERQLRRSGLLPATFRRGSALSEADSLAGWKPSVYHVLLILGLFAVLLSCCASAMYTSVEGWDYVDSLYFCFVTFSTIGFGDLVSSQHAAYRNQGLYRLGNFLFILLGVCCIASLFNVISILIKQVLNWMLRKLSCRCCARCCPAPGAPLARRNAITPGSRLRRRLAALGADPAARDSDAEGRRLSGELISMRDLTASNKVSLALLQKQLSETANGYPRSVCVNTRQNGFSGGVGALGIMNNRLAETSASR
The test can be described thus: Inside-out excised patch recordings, oocytes, THIK-2* Y292A. In kind it is cell-based. From the text: Human K2P13.1 THIK-1 (GenBank accession number: NM_022054) and human K2P12.1 THIK-2 (NM_022055.1) were used in this study. For functional expression studies, the respective K^+ channel subtype coding sequences were subcloned into the oocyte expression vector pSGEM or the dual-purpose expression vector pFAW[41] and verified by sequencing. All mutant channels were obtained by site-directed mutagenesis and verified by sequencing. To increase surface expression and macroscopic currents, measurements of THIK-2 channels used a mutated ER retention motif, (R11A R12A R14A R15A R16A; THIK-2*)[20]. Vector DNA was linearized with NheI or MluI, and mRNA was synthesized in vitro using the SP6 or T7 AmpliCap Max High Yield Message Maker Kit (Cellscript, USA) or HiScribe T7 ARCA mRNA Kit (New England Biolabs).
Two-electrode voltage–clamp (TEVC) studies were performed in Xenopus oocytes. All animal use conformed to the Guide for the Care and Use of Laboratory Animals (NIH Publication 85–23), and all experiments using Xenopus toads were approved by the local ethics panels. Oocytes were stored at 17 °C in ND96 recording solution composed of (in mM): 96 NaCl, 2 KCl, 1.8 CaCl2, 1 MgCl2, 5 HEPES (pH 7.5 adjusted with NaOH and HCl), supplemented with Na-pyruvate (275 mg L^–1), theophylline (90 mg L^–1) and gentamicin (50 mg L^–1). Oocytes were injected with 1 ng mRNA for WT or mutant channels, and were incubated for 24–48 h at 17 °C. Two-electrode voltage clamp recordings were then performed as previously described[42],[43]. For macroscopic patch–clamp measurements, oocytes were obtained as described above incubated at 17 °C in a solution containing (mM): 54 NaCl, 30 KCl, 2.4 NaHCO3, 0.82 MgSO4 ×7 H2O, 0.41 CaCl2, 0.33 Ca(NO3)2 ×4 H2O and 7.5 TRIS (pH 7.4 adjusted with NaOH and HCl) for 1–4 days before use. Excised patch recordings in inside-out configuration conditions were performed at room temperature. Patch pipettes were made from thick-walled borosilicate glass GB 200TF-8P (Science Products), had resistances of 0.2–0.5 MΩ (tip diameter, 10–25 µm) and filled with a pipette solution (in mM): 120 KCl, 10 HEPES and 3.6 CaCl2 (pH 7.4 adjusted with KOH and HCl). Intracellular bath solutions and compounds were applied to the cytoplasmic side of excised patches for the various K^+ channels through a gravity flow multi-barrel pipette system. The intracellular solution had the following composition (in mM): 120 KCl, 10 HEPES, 2 EGTA and 1 pyrophosphate (pH adjusted with KOH and HCl). Currents were recorded with an EPC10 amplifier (HEKA Electronics) and sampled at 10 kHz or higher, with filtering set to 3 kHz (–3 dB) or higher, as appropriate for sampling rate. For measurements of GPCR activation, whole-cell currents were recorded for THIK-1 in transiently transfected HEK-293 cells. Cells were stimulated by a ramp protocol between −100 and +60 mV (holding potential, −80 mV). The pipette solution was composed of (in mM): 140 KCl, 2 MgCl2, 1 CaCl2, 2.5 EGTA and 10 HEPES (pH 7.3 adjusted with KOH and HCl). The extracellular bath solution had the following composition (in mM): 135 NaCl, 5 KCl, 2 MgCl2, 2 CaCl2, 10 glucose and 10 HEPES pH (pH 7.3 adjusted with NaOH and HCl). Oxotremorine M (Oxo-M) was added to extracellular bath solution to obtain the final concentration. Single-channel currents were recorded with an Axopatch 200B amplifier through a Digidata 1440A digitizer (Molecular Devices). Data were filtered at 2 kHz and recorded at a 200-kHz sampling rate with the program Clampex (Molecular Devices). Pipette solution and bath solution for cell-attached recordings contained (in mM): 140 KCl, 2 MgCl2, 1 CaCl2 and 10 HEPES (pH 7.4 adjusted with KOH and HCl). For inside-out recordings, the bath solution contained (in mM): 140 KCl, 2 MgCl2, 1 CaCl2 and 10 HEPES (pH 7.2 adjusted with KOH and HCl). All experiments were conducted at room temperature. […]

We go through 1 molecule from publication PMC12263422, “Cryo-EM structure of the human THIK-1 K2P K^+ channel reveals a lower Y gate regulated by lipids and anesthetics” (Nature Structural & Molecular Biology, 2025).

The structures appear in SMILES notation. “And” between values parts separate entries of the source, which are not always exact repeats. Equal entries are not always repeated.

Turning to `CCCCC[N+](CCCCC)(CCCCC)CCCCC` [TPenA, tetrapentylammonium], the Normalized currents (0.1 µM TPenA) turned out to be 1.00; the Normalized currents (1 µM TPenA) stood at 0.93; the Normalized currents (10 µM TPenA) was found to be 0.74; the Normalized currents (100 µM TPenA) stood at 0.42; the Normalized currents (1000 µM TPenA) was found to be 0.09; the Normalized currents (5000 µM TPenA) was 0.07. The “τ of 1 mM TPenA block” value by setting is: (individual recordings) 0.090 s and 0.080 s and 0.060 s and 0.150 s and 0.070 s; (mean) 0.09 s. The “τ of 1 mM TPenA release” value by setting is: (individual recordings) 0.680 s and 0.860 s and 0.410 s and 0.480 s and 1.100 s and 0.400 s; (mean) 0.66 s.
